In patent US7572800B2, “Combination therapy to treat hepatitis B virus” (Gilead Sciences, Inc., priority 1998, dated 2009):

How the values were obtained:
2.2.15 cells = assay: Toxicity analysis by uptake of neutral red dye; settings: at the concentrations used for the antiviral evaluations
Experimental: Toxicity analysis were performed in 96-well flat bottomed tissue culture plates. Cells for the toxicity analyses were cultured and treated with test compounds with the same schedule and under identical culture conditions as used for the antiviral evaluations. Each compound was tested at 4 concentrations, each in triplicate cultures. Uptake of neutral red dye was used to determine the relative level of toxicity 24 hours following the last treatment. The absorbance of internalized dye at 510 nM (A510) was used for the quantative analysis. Values are presented as a percentage of the average A510 values (±standard deviations) in 9 separate cultures of untreated cells maintained on the same 96-well plate as the test compounds.

HBV = assay: Antiviral evaluation: extracellular (virion) HBV DNA levels produced by 2.2.15 cells; type: cell-based, hepatitis B virus; settings: for depression of extracellular (virion) HBV DNA levels: 9 consecutive daily doses
Experimental: Details of the assay methodology can be found in: Korba and Gerin, Antiviral Res. 19: 55-70 (1992) and Korba, Antiviral Res. 29: 49-52 (1996). The antiviral evaluations were performed on six separate cultures per each of four test concentrations. All wells, in all plates, were seeded at the same density and at the same time.
Due to the inherent variations in the levels of both intracellular and extracellular HBV DNA, only depressions greater than 3.0-fold for HBV virion DNA from the average levels for these HBV DNA forms in untreated cells are generally considered to be statistically significant [P<0.05] (Korba and Gerin, Antiviral Res. 19: 55-70, 1992). Typical values for extracellular HBV virion DNA in untreated cells range from 80 to 150 pg/ml culture medium (average of approximately 92 pg/ml).
For reference, the manner in which the hybridization analyses were performed for these experiments results in an equivalence of approximately 1.0 pg of extracellular HBV DNA/ml culture medium to 3×10^5 viral particles/ml.
For the antiviral test analyses, confluent cultures were maintained on 96-well flat bottomed tissue culture plates. Two separate (replicate) plates were used for each drug treatment. A total of 3 cultures on each plate were treated with each of the dilutions of antiviral agents (6 cultures per dilution). Cultures were treated with 9 consecutive daily doses of the test compounds. Medium was changed daily with fresh test compounds. Only extracellular (virion) HBV DNA levels were followed.

Nc1ccn([C@@H]2CS[C@H](CO)O2)c(=O)n1 [3TC, (−)β,L,2′,3′-dideoxy-3′thiacytidine]
toxicity (greater than 50% depression of neutral red dye uptake levels observed in untreated cells) (2.2.15 cells): No significant toxicity

Nc1nc(=O)n([C@@H]2CS[C@H](CO)O2)cc1F [FTC, β-2-Hydroxymethyl-5-(5-fluorocytosin-1-yl)-1,3-oxathiolane]
anti-HBV activity/potency compared with previous reports or earlier analyses (HBV): lower than that observed in earlier analyses | depression of extracellular (virion) HBV DNA levels (HBV): significant and selective depressions | toxicity (greater than 50% depression of neutral red dye uptake levels observed in untreated cells) (2.2.15 cells): No significant toxicity

Nc1nc(N)c2ncn([C@H]3CO[C@@H](CO)O3)c2n1 [DAPD]
anti-HBV activity/potency compared with previous reports or earlier analyses (HBV): lower than that observed in earlier analyses | depression of extracellular (virion) HBV DNA levels (HBV): significant and selective depressions

Nc1nc2c(ncn2CCC(CO)CO)c(=O)[nH]1 [PCV, 2-amino-1,9-dihydro-9-[4-hydroxy-3-(hydroxymethyl)butyl]-6H-purin-6-one, reference compound]
anti-HBV activity/potency compared with previous reports or earlier analyses (HBV): higher than previously reported | depression of extracellular (virion) HBV DNA levels (HBV): significant depressions | toxicity (greater than 50% depression of neutral red dye uptake levels observed in untreated cells) (2.2.15 cells): No significant toxicity

Cc1cn([C@H]2O[C@@H](CO)[C@H](O)[C@H]2F)c(=O)[nH]c1=O [L-FMAU, 2′-fluoro-5-methyl-β-L-arabinofuranolyluridine]
anti-HBV activity/potency compared with previous reports or earlier analyses (HBV): lower than that observed in earlier analyses | depression of extracellular (virion) HBV DNA levels (HBV): significant and selective depressions

Nc1nc2c(ncn2C2COC(CO)O2)c(=O)[nH]1 (stereo not drawn) [DXG]
depression of extracellular (virion) HBV DNA levels (HBV): significant and selective depressions
